{"source": "patent US11401303B2", "about": "“Synthetic peptide BRAP and application in preparation of anti-inflammatory drug for COVID-19 thereof” (TAIAN CITY QIHANG BIOTECHNOLOGY CO., priority 2020, dated 2022)", "key": {"Bradykinin B1 receptor": {"molecular_target": "T1, Bradykinin B1 receptor (Homo sapiens, UniProt P46663)", "T1 construct": "host or cells: HEK293/Gα15/B1", "T1 sequence (P46663 1-353)": "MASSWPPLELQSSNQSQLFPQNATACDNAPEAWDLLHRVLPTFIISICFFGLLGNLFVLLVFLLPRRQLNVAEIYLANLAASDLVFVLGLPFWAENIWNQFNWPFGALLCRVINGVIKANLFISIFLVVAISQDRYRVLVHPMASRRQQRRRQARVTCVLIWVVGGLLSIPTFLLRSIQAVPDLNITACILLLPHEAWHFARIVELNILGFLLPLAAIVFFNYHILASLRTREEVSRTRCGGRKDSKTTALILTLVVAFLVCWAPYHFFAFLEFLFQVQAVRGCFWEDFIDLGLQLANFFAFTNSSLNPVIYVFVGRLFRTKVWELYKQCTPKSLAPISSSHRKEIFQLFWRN", "assay_type": "cell-based"}, "[1]": {"tested_on": "LPS-induced acute lung injury", "test": "LPS-induced acute lung injury in mice, HE pathological examination of lung tissues", "assay_type": "in vivo, Balb/C mice", "conditions": "LPS 5 mg/kgBW i.p.", "protocol": "1. Grade-SPF male Balb/C mice, body weight: 20±2 g, and n=48\n3. Grouping and treatment: mice were randomly divided into 8 groups (A-H), 6 pcs./group;\n3-1: 3 different treatments were given for 3 consecutive days respectively before modeling:\nA. normal control group: normal saline was injected via the tail vein for once/day;\nB. LPS model group: normal saline was injected via the tail vein for once/day;\nC. model sp2 administration group: sp2 (16 mg/kgBW) was injected via the tail vein for once/day;\nD. model high-dose brap administration group: brap (16 mg/kgBW) was injected via the tail vein for once/day;\nE. model medium-dose brap administration group: brap (8 mg/kgBW) was injected via the tail vein for once/day;\nF. model low-dose brap administration group: brap (4 mg/kgBW) was injected via the tail vein for once/day;\nG. model brap intranasal administration group: brap (3 mM) was administered nasal administration on both sides, 15 μl/each side; once a day;\nH. model dexamethasone administration group (a positive control group): dexamethasone, DEX, 5 mg/kg was injected intraperitoneally for once a day.\nAnimals from groups A-H were continuously administered the above treatments for 30 min respectively, then group A was intraperitoneally injected isopyknic normal saline, and other groups were intraperitoneally injected LPS 5 mg/kgBW.\n1. Tissue section and extending\n2. Tissues were dewaxed and hydrated.\n3. Tissues were dyed with a hematoxylin stain for 5-20 min (adjusted according to different tissues and experimental requirements), and washed by tap water.\n4. Then, tissues were differentiated by a differentiation solution for 30 s.\n5. Tissues were soaked by tap water for 15 min or warm water (about 50° C.) for 5 min.\n6. Tissues were put in an Eosin stain for 2 min (adjusted according to different tissues and experimental requirements), and washed by tap water.\n7. Then, the tissues were soaked by tap water for 5 min.\n8. Dehydration by gradient alcohol: Tissues were dehydrated by 95%, 100% I, and 100% II for 1 min each;\n9. Transparency by xylene: tissues were subjected to xylene I and II for 10 min.\n10. Neutral balsam mounting.\n11. Then, it was put and dried in an oven at 60° C., and observed under microscope."}, "endotoxin": {"tested_on": "endotoxin", "test": "Endotoxin content in blood of LPS-induced mice (LAL kit)", "assay_type": "in vivo, Balb/C mice", "conditions": "low, medium and high dose (4, 8, 16 mg/kgBW i.v.); 6 h after LPS 5 mg/kg BW i.p.; dose-response relationship", "protocol": "The detection was performed according to the specification of the endotoxin test LAL (Limulus Amebocyte Lysate) kit:\n(1) anticoagulant venous blood of each group of mice constructed in example 9 was taken and centrifuged for 2 min at 3000 rpm/min; 100 ul supernate was taken and added to a 0.9 ml sample treating fluid;\n(2) the above sample was put in a 70° C. dry-heat sterilization box for 10 min, then cooled by running water;\n(3) concentration gradient of an endotoxin standard was 1.0, 0.5, 0.25 and 0.1 EU/ml;\n(4) several endotoxin-free test tubes were taken, and 100 ul water for detecting bacterial endotoxin, an endotoxin standard and a test product were added respectively;\n(6) 100 ul TAL solution was added, mixed evenly, and covered by a silver paper, and incubated for 10 min at 37° C.;\n(7) 100 ul developing-matrix solution was added, mixed evenly, and incubated for 6 min at 37° C.;\n(8) 500 ul azo reagent 1 was added and mixed evenly;\n(9) 500 ul azo reagent 2 was added and mixed evenly;\n(10) 500 ul azo reagent 3 was added, mixed evenly, standing for 5 min;\n(11) OD value was measured at 545 nm."}, "IL-6 mRNA": {"tested_on": "IL-6 mRNA", "test": "IL6 mRNA expression in lung tissues of LPS-induced mice by qPCR", "assay_type": "in vivo, Balb/C mice", "protocol": "1.1 Lung tissue sample: a fresh lung tissue sample from each group of mice constructed in example 9 was taken and quick-frozen by liquid nitrogen as quickly as possible, and kept at […].\n2. Extraction of total RNA (a total RNA extraction kit via a paramagnetic particle method was used)\n2.1 The tissue sample was cut into small pieces, and ground (50 mg) to powder via liquid nitrogen, and transferred to a 1.5 ml tube free of RNA enzyme (cell sample and other liquid samples required no grinding, and were directly put to the next step).\nUsing the operational method of Applied Biosystems 7300/7500/7500 Fast Real-Time PCR System and StepOnePlusTMReal-Time PCR System\n1. Preparation of a PCR reaction liquid\n2. Real Time PCR reaction was performed.\nAt the end of the reaction, an amplification curve and dissociation curve of Real Time\nPCR were confirmed, and 2^−ΔΔct and the like were calculated."}, "IL-6": {"tested_on": "IL-6", "test": "IL-6 content in blood serum of LPS-induced mice (ELISA)", "assay_type": "in vivo, Balb/C mice", "protocol": "(§1) 1. A reagent was taken out of a kit and balanced for 30 min at room temperature;\n(§2) 2. standard wells and sample wells were set, and 50 ul standards at different concentrations were respectively added to each standard well.\n(§3) 3. 50 ul sample to be tested (blood sample from each group of mice model constructed in example 9) was first added to the wells of the sample to be tested;\n(§4) 4. 100 ul HRP-labeled detection antibody was respectively added to each standard well and well to be tested;\n(§5) 5. reaction wells were sealed by a microplate membrane for incubation for 60 min at 37° C.;\n(§6) 6. liquid was discarded, water was dried by an absorbent paper, each well was filled with scrubbing solution, standing for 1 min;\n(§7) 7. a culture solution was discarded, water was dried by an absorbent paper, and steps 2-6 were operated repeatedly for 5 times;\n(§8) 8. 50 ul substrate A/B was respectively added to each well for incubation for 15 min at 37° C.;\n(§9) 9. 50 ul stop buffer was added to each well to detect an OD value at 450 nm by an microplate reader within 15 min."}, "TNF-a": {"tested_on": "TNF-a", "test": "TNF-a content in blood serum of LPS-induced mice (ELISA)", "assay_type": "in vivo, Balb/C mice", "protocol": "as §1, §2, §3, §4, §5, §6, §7, §8, §9"}, "[2]": {"conditions": "low, medium and high-dose intravenous injection groups, p<0.01"}, "[3]": {"conditions": "nasal dripping group, at 12 h, P<0.05"}}, "note": "“Also recorded” adds a separate entry of the source. Ends that are not written are not given here.", "data": [{"sequence": "RVLNGPEAPA [brap]", "values": [{"measurement": "Effect of compound acting together with EC10 and EC20", "setting": "Bradykinin B1 receptor", "result": "no obvious effect"}, {"measurement": "Inhibitory activity on B1 receptor activation by EC80 irritant", "setting": "Bradykinin B1 receptor", "result": "obviously inhibited"}, {"measurement": "Lung tissue pathology (HE)", "setting": "[1]; 16 mg/kgBW via tail vein once/day", "result": "No abnormality; also recorded: no thickened pulmonary septum and no obvious inflammatory cell infiltration"}, {"measurement": "Lung tissue pathology (HE)", "setting": "[1]; intranasal 3 mM, 15 μl/each side once a day", "result": "no obvious abnormality"}, {"measurement": "Lung tissue pathology (HE)", "setting": "[1]; medium and low dose, 8 and 4 mg/kgBW via tail vein once/day", "result": "inflammatory cell infiltration begins to appear"}, {"measurement": "Blood endotoxin level compared with the model group", "setting": "endotoxin", "result": "obviously below that in the model group"}, {"measurement": "IL-6 mRNA overexpression in lung tissues", "setting": "IL-6 mRNA; intranasal administration", "result": "obviously decrease the overexpression"}, {"measurement": "IL-6 mRNA overexpression in lung tissues", "setting": "IL-6 mRNA; intravenous injection", "result": "obviously decrease the overexpression"}, {"measurement": "IL-6 level in serum compared with the model group", "setting": "IL-6; [2]", "result": "dose-response relationship"}, {"measurement": "IL-6 level in LPS-induced blood", "setting": "IL-6; [3]", "result": "can decrease"}, {"measurement": "TNF-a level in serum compared with the model group", "setting": "TNF-a; [2]", "result": "dose-response relationship"}, {"measurement": "TNF-a level in LPS-induced blood", "setting": "TNF-a; [3]", "result": "can decrease"}]}]}
